Paper PMC6862289, “Metabolic Profile, Bioavailability and Toxicokinetics of Zearalenone-14-Glucoside in Rats after Oral and Intravenous Administration by Liquid Chromatography High-Resolution Mass Spectrometry and Tandem Mass Spectrometry” (International Journal of Molecular Sciences, 2019)
Where two headings read alike, the source gives them in different places.

Legend:
[1] = Toxicokinetics of ZEN-14G in rats after oral and intravenous administration (plasma LC-MS/MS, non-compartmental analysis); format: in vivo, Wistar rats; conditions: for level detected in plasma after oral administration of ZEN-14G: p.o. ZEN-14G 0.75 mg/kg, Figure 3A; for amount observed in plasma after intravenous administration of ZEN-14G: i.v. ZEN-14G 0.75 mg/kg, Figure 3D; for k el: mean ± SD, n = 12, read-out: λZ (elimination rate constant) (converted); for AUC(0-inf): read-out: AUC0-infinity; for half-life: read-out: Elimination t1/2 (converted)
Description: The validated LC-MS/MS method was eligible for the toxicokinetic characterization of ZEN-14G in rats. The obtained data (above the LOQ) were analyzed via non-compartmental analysis using WinNonlin 6.3 software (Pharsight Co. Mountain View, CA, USA). The area under the plasma concentration–time curve (AUC) was obtained using the trapezoidal rule with extrapolation to infinity. […] The half-life period of ZEN in pigs was much longer than ZEN-14G in rats, which may be attributed to enterohepatic circulation. […] The low absolute bioavailability of ZEN-14G might be due to the deglycosylation of ZEN-14G to ZEN. The CL and VZ are extremely different between oral (p.o.) and intravenous (i.v.) administration. The VZ depends on the total mass absorbed and the plasma concentration. For oral administration, the low plasma concentration of ZEN-14G may because ZEN-14G appeared to be distributed into a very large volume or rapidly biotransformed into other compounds. The low oral bioavailability and low plasma concentration of ZEN-14G led to the […] VZ than that of i.v. administration. […] CL is the volume of blood from which a compound is removed per unit time. In comparison with p.o., much more of ZEN-14G was absorbed in the plasma after intravenous injection (i.v.)—more volume of blood cleared of ZEN-14G per unit time.
ZEN-14G was dissolved in aqueous solution containing 0.5% carboxymethyl cellulose. We selected twelve Wistar rats (half male and half female, with an average weight of 180 g, obtained from Vital River Laboratory Animal Technology Co. Ltd (Beijing, China). The rats were raised for one week for acclimation before the experiment, and the rats went through a 12 h fast before dosing. Six rats were treated with ZEN-14G via oral gavage at a dosage of 0.75 mg/kg body weight followed by blood collection at 0.083, 0.16, 0.25, 0.5, 0.75, 1.0, 1.5, 2, 4, and 6 h post administration while the other six rats were administered with the same amount of ZEN-14G intravenously and the blood samples were collected at the same time points. After a one-week withdrawal period, a crossover design was used for the following experiment where the rats administered orally would receive intravenous administration and vice versa. […] All the animal experiments complied with the National Institutes of Health guide for the care and use of laboratory animals, which has been approved on 20 March 2018 by the ethical committee of China Agricultural University (Beijing, China) (2018-SYXK-0238).
We extracted 100 μL of plasma using 100 μL of acetonitrile followed by centrifugation for 5 min at 14,000× g at 4 °C. This analytical method was established based on the published literature. The supernatant was gathered, evaporated until dry and eventually re-dissolved in 100 μL of 15% acetonitrile. This analytical method was soundly validated in plasma before application.
The separation and identification of ZEN-14G and its metabolites were performed on a Phenomenex column (Kinetex 50 mm × 2.1 mm i.d. 1.7 μm particle size, C18) using an ultra-high-performance liquid chromatograph (Agilent 1260 Infinity) coupled to a triple quadrupole mass spectrometer (Agilent 6495) under negative ESI mode (Agilent Technologies, Palo Alto, CA, USA). The chromatographic separations were achieved through a gradient elution program. Mobile phase A was water containing 0.1% formic acid, and phase B was acetonitrile containing 0.1% formic acid. The gradient elution program for phase B was listed as: 0–1 min, 0%–15%; 1–2 min, 15%–45%; 2–4 min, 45%–90%; 4–5 min, 90%; 5–5.1 min, 90%–15%; and 5.1–6.0 min, 15%. The key parameters for the mass spectrometer were as follows: capillary voltage (3.5 kV); gas temperature (250 °C); gas flow (11 L/min); nebulizer (45 psi); sheath gas temperature (350 °C); and sheath gas flow (12 L/min). Furthermore, the detailed information on precursor ions and the product ions of ZEN-14G and quantifiable products are described in Table S1. […]

[2] = female pigs; cited from earlier work
[3] = poultry; cited from earlier work
[4] = rats; cited from earlier work
[5] = broiler chickens; cited from earlier work
[6] = pigs; cited from earlier work
[7] = system: estrogenic receptors; set-up: method as in PMID 32625539; conditions: compared with ZEN; cited from earlier work
[8] = both sexes, Wistar, rat, in vivo, iv, 0.75 mg/kg body weight
[9] = both sexes, Wistar, rat, in vivo, po, 0.75 mg/kg body weight

Q: With `C[C@H]1CCCC(=O)CCC/C=C/c2cc(O)cc(O)c2C(=O)O1` [ZEN, Zearalenone] as the compound, how does the “yield of ZEN in plasma relative to that of ZEN-14G” value ([1]; after i.v. ZEN-14G 0.75 mg/kg body weight) read?
A: approximately 4.5 times

Q: What about the “level detected in plasma after oral administration of ZEN-14G” value [1] of the same compound?
A: trace level

Q: And the absolute oral bioavailability [2]?
A: around 51.5%

Q: And the oral bioavailability [3]?
A: 10%

Q: What about the oral bioavailability [4] of the same compound?
A: 10%

Q: What does the source list for `CC1=C[C@H]2O[C@@H]3[C@H](O[C@@H]4O[C@H](CO)[C@@H](O)[C@H](O)[C@H]4O)C[C@](C)([C@@]2(CO)[C@H](O)C1=O)[C@]31CO1` [DON-3G, deoxynivalenol-3-β-D-glucoside]?
A: absolute oral bioavailability [5]: 3.79%; absolute oral bioavailability [6]: 16.1%

Q: For `CC1CCC[C@H](O)CCC/C=C/c2cc(O)cc(O)c2C(=O)O1` (stereo partly drawn) [α-ZEL, α-zearalenol], which “amount observed in plasma after intravenous administration of ZEN-14G” value [1] is on record?
A: small amount

Q: And the “level detected in plasma after oral administration of ZEN-14G” value [1]?
A: trace level

Q: What does the source list for `CC1CCCC(=O)CCC/C=C/c2cc(OC3OC(CO)C(O)C(O)C3O)cc(O)c2C(=O)O1` (stereo not drawn) [ZEN-14G, Zearalenone-14-glucoside]?
A: visible adverse phenomena ([1]; 0.75 mg/kg body weight, any route of administration (p.o., i.v.)): No visible adverse phenomena; bioavailability ([1]; both sexes, Wistar, rat, in vivo, 0.75 mg/kg, AUC oral / AUC intravenous × 100%, 0.75 mg/kg body weight, read-out: F (absolute oral bioavailability)): ~9%; AUC(0-t) [1, 8]: 1.79 ± 0.03 ng·h/mL; k el [1, 8]: 0.000883 s⁻¹; AUC(0-inf) [1, 8]: 1.8 ± 0.02 ng·h/mL; half-life [1, 8]: 13.2 ± 1.8 min; MRT ([1]; both sexes, Wistar, rat, in vivo, iv, 0.75 mg/kg, i.v., 0.75 mg/kg body weight, read-out: MRT (mean residence time)): 12 ± 1.8 min; Vd ([1]; both sexes, Wistar, rat, in vivo, iv, 0.75 mg/kg, i.v., 0.75 mg/kg body weight, read-out: VZ (apparent volume of distribution)): 7.25 ± 1.23 L/kg; Vd ([1]; both sexes, Wistar, rat, in vivo, iv, 0.75 mg/kg, i.v., 0.75 mg/kg body weight, read-out: VZ (apparent volume of distribution), as printed in text): 87.2 L/kg; AUC(0-t) [1, 9]: 0.11 ± 0.03 ng·h/mL; Cmax [1, 9]: 0.2 ± 0.03 ng/mL; Tmax [1, 9]: 4.98 ± 0.6 min; k el [1, 9]: 0.0002 s⁻¹; AUC(0-inf) [1, 9]: 0.16 ± 0.02 ng·h/mL; CL/F ([1]; both sexes, Wistar, rat, in vivo, po, 0.75 mg/kg body weight, read-out: CL (apparent total body clearance) (converted)): 75 mL/min/kg; half-life [1, 9]: 57.6 ± 4.2 min; CL (apparent total body clearance) ([1]; i.v., 0.75 mg/kg body weight): 83.7 ± 10.3 mL/min/kg; VZ (apparent volume of distribution) ([1]; p.o., 0.75 mg/kg body weight): 6.24 ± 0.73 L/kg; time point of the peak concentration ([1]; p.o., first time point): 5 min; estrogenic potency [7]: comparable to that of ZEN

Q: With `CC1CCC[C@H](O)CCC/C=C/c2cc(OC3OC(CO)C(O)C(O)C3O)cc(O)c2C(=O)O1` (stereo partly drawn) [α-ZEL-14G] as the compound, how does the “amount observed in plasma after intravenous administration of ZEN-14G” value [1] read?
A: small amount
